The record followed here is patent US20230105457A1, “Immunogenic Compounds For Treatment Of Adrenal Cancer” (ENTEROME S.A., priority 2019, published 2023).

This test concerns splenocytes of β/A2/DR3 mice. The experiment in a line: ELISPOT-IFNγ assay on splenocytes of vaccinated β/A2/DR3 mice (Example 2). It counts as in vivo, mouse. The following applies: label = vaccination peptide. The text has this:
Briefly, 14 β/A2/DR3 mice were assigned randomly (based on mouse sex and age) to two experimental groups, each immunized with a specific vaccination peptide (vacc-pAg) combined to a common helper peptide (h-pAg) (as outlined in Table 7 below). The vacc-pAg were compared in couples (group 1 vs. group 2). Thereby, both native and optimized versions of a single peptide were compared in each wave.
The animals were immunized on day 0 (d0) with a prime injection, and on d14 with a boost injection. Each mouse was injected s.c. at tail base with 100 μL of an oil-based emulsion that contained: • 100 μg of vacc-pAg (25 μL of 4 mg/mL stock per mouse); • 150 μg of h-pAg (15 μL of 10 mg/mL stock per mouse); • 10 μL of PBS to reach a total volume of 50 μL (per mouse); • Incomplete Freund's Adjuvant (IFA) added at 1:1 (v:v) ratio (50 μL per mouse).
A separate emulsion was prepared for each vacc-pAg, as follows: IFA reagent was added to the vacc-pAg/h-pAg/PBS mixture in a 15 mL tube and mixed on vortex for repeated cycles of 1 min until forming a thick emulsion.
Seven days after the boost injection (i.e. on d21), the animals were euthanized and the spleen was harvested. Splenocytes were prepared by mechanical disruption of the organ followed by 70 μm-filtering and Ficoll density gradient purification.
The splenocytes were immediately used in an ELISPOT-IFNγ assay (Table 8). Experimental conditions were repeated in quadruplets, using 2*105 total splenocytes per well, and were cultured in presence of vacc-pAg (10 μM), Concanavalin A (ConA, 2.5 μg/mL) or medium-only to assess for their capacity to secrete IFNγ. The commercial ELISPOT-IFNγ kit (Diaclone Kit Mujrine IFNγ ELISpot) was used following the manufacturer's instructions, and the assay was performed after about 16 h of incubation.
Spots were counted on a Grand ImmunoSpot® S6 Ultimate UV Image Analyzer interfaced to the ImmunoSpot 5.4 software (CTL-Europe). Data plotting and statistical analysis were performed with the Prism-5 software (GraphPad Software Inc.).
The cell suspensions were also analyzed by flow cytometry, for T cell counts normalization. The monoclonal antibody cocktail (data not shown) was applied on the purified leucocytes in presence of Fc-block reagents targeting murine (1:10 diluted ‘anti-mCD16/CD32 CF11 clone’—internal source) Fc receptors. Incubations were performed in 96-well plates, in the dark and at 4° C. for 15-20 minutes. The cells were washed by centrifugation after staining to remove the excess of monoclonal antibody cocktail, and were re-suspended in PBS for data acquisition.
The data were then normalized as a number of specific spots (the average counts obtained in the ‘medium only’ condition being subtracted) per 10^6 total T cells.
The individual average values (obtained from the quadruplicates) were next used to plot the group average values (see FIG. 3A). As the functional capacity of T cells might vary from individual to individual, the data were also expressed as the percentage of the ConA response per individual (see FIG. 3B).

Consider “WLPFGFILI [IL13RA2-H, reference compound]”, for which the “Percentage of ConA-induced response (mean+/−SEM), ELISPOT-IFNγ” value is recorded as 2.0%+/−0.8 (ex vivo restimulation with IL13RA2-B pAg (10 μM)) and 1.1%+/−0.8 (ex vivo restimulation with IL13RA2-H pAg (10 μM)).
